The values that follow come from paper PMC6017957, “Synthesis, Anti-Proliferative Activity Evaluation and 3D-QSAR Study of Naphthoquinone Derivatives as Potential Anti-Colorectal Cancer Agents” (Molecules : A Journal of Synthetic Chemistry and Natural …, 2018).

Data set [1] deals with HT-29 colorectal cancer cells. The data set is described as follows: MTT anti-proliferative assay against HT-29 cells. The format is cell-based, human. Particulars: for Selectivity Index: SI = IC50Fibroblast/IC50HT-29cells; for Cytotoxic activity category against HT-29: classified by HT-29 IC50. How it is done: (§1) The toxicity of the thirty-six compounds was determined in vitro by means of the MTT assay. Doxorubicin, a drug widely used to treat different types of cancer, was employed as a positive control, whereas the solvent (DMSO) was used as negative control.
(§2) Test compounds were dissolved in DMSO to obtain stock solutions that were maintained as small aliquots at −20 °C. At time of drug addition, an aliquot was thawed and diluted to obtain the desired final maximum test concentration of 100 μM, with complete medium. The final percentage of DMSO in the wells was less than 1% (v/v). […] Anti-Proliferative Assay
(§3) Doxorubicin, a drug widely used to treat different types of cancer, was used as a positive control. After 48 h, the medium was removed and cells were incubated with MTT solution (0.25 mg/mL). Four hours later, the medium was carefully aspired and formazan crystals were dissolved in DMSO (100 μL). The OD550 was measured using a plate reader (Multiskan Go, Thermo Scientific, Waltham, MA, USA). […] The selectivity index (SI), was calculated as a ratio of IC50Fibroblast/IC50HT-29cells.
(§4) The results are expressed as the mean of triplicate measurements in at least two independent experiments.
A general note: Tetrazolium assays rely on reduction of a dye to a coloured formazan, in cell work by metabolically active cells.

The next data set has as its system fibroblasts PCS-201-012. Briefly: MTT cytotoxicity assay against normal dermal fibroblasts. Format: cell-based. Particulars: Fibroblast, value with 95% confidence interval, read-out: PCS-201-012 IC50 μM (95% CI). As to the method:
as §1, §2, §3, §4

The mark [2] stands for this setting: Homo sapiens, HT-29, 48 h, MTT, 48 h, 0–100 µM, value with 95% confidence interval, read-out: HT-29 IC50 μM (95% CI).
[3] abbreviates: Homo sapiens, HT-29, −logIC50 against HT-29, CoMFA training and test sets, read-out: pIC50 Experimental (converted).

Like-named read-outs stand apart in the source and are kept apart here. Some results are limits rather than exact numbers.

Take `O=C1c2ccccc2C(=O)C2OC12` (stereo not shown) [Compound 1a, 1a,7a-Dihydronaphtho[2,3-b]oxirene-2,7-dione]: the IC50 in data set [1] (setting [2]) and in data set [1] (setting [3]) was 10.8 µM in each case.
Consider `NC1=CC(=O)c2ccccc2C1=O` [Compound 2, 2-Aminonaphthalene-1,4-dione], for which the IC50 in data set [1] (Homo sapiens, HT-29, MTT, 48 h, 0–100 µM, value with 95% confidence interval, read-out: HT-29 IC50 μM (95% CI)) is 24.6 µM; in data set [1] (Homo sapiens, −logIC50 against HT-29, CoMFA training and test sets, read-out: pIC50 Experimental (converted)), 24.6 µM; in the data set with fibroblasts PCS-201-012, 7.34 µM. Further, the “Selectivity Index” value in data set [1] is listed as 0.30.
Turning to `O=C1c2ccccc2C(=O)c2[nH]ccc21` [Compound 2a, 1H-Benzo[f]indole-4,9-dione], the melting point is 281 to 283 °C. Besides, the IC50 in data set [1] (setting [2]) was > 100 µM.
In the same order, the values of `Cc1cc2c([nH]1)C(=O)c1ccccc1C2=O` [Compound 2b, 2-Methyl-1H-benzo[f]indole-4,9-dione] are 302 to 304 °C and > 100 µM.
`CCc1cc2c([nH]1)C(=O)c1ccccc1C2=O` [Compound 2c, 2-Ethyl-1H-benzo[f]indole-4,9-dione] had a melting point of 200 to 207 °C. Moreover, the IC50 in data set [1] (setting [2]) is 40.2 µM. Further, the IC50 in data set [1] (setting [3]) was 40.2 µM. The “Cytotoxic activity category against HT-29” value (“Cytotoxic activity category” for short) in data set [1] is “moderately active (moderately active (20 µM < IC50 ≤ 100 µM))”. The IC50 with fibroblasts PCS-201-012 is 79.4 µM.
For the compound `CCc1[nH]c2c(c1CC)C(=O)c1ccccc1C2=O` [Compound 2d, 2,3-Diethyl-1H-benzo[f]indole-4,9-dione], the melting point was in the range of 205 to 209 °C. The IC50 in data set [1] (setting [2]) was 68.7 µM. Besides, the IC50 in data set [1] (setting [3]) was 68.7 µM. For the same compound, the “Selectivity Index” value in data set [1] came to 0.75. For the same compound, the IC50 with fibroblasts PCS-201-012 was 51.5 µM.
`Cc1c(C(C)C)[nH]c2c1C(=O)c1ccccc1C2=O` [Compound 2e, 3-Methyl-2-(propan-2-yl)-1H-benzo[f]indole-4,9-dione] had a melting point of 245 to 248 °C. In addition, the IC50 in data set [1] (setting [2]) was > 100 µM.
In the same order, the values of `CCCc1[nH]c2c(c1C)C(=O)c1ccccc1C2=O` [Compound 2f, 3-Methyl-2-propyl-1H-benzo[f]indole-4,9-dione] are 266 to 270 °C and > 100 µM.
As to `CC1=C(N)C(=O)c2ccccc2C1=O` [Compound 3a, 2-Amino-3-methylnaphthalene-1,4-dione], in data set [1] (setting [2]), the IC50 was > 100 µM.
On the same count and under the same terms, for `CC12OC1C(=O)c1ccccc1C2=O` (stereo not shown) [Compound 3b, 1a-Methyl-1a,7a-dihydronaphtho[2,3-b]oxirene-2,7-dione] the value was 57.3 µM.
In turn, `CC1=C(Cl)C(=O)c2ccccc2C1=O` [Compound 3c, 2-Chloro-3-methylnaphthalene-1,4-dione] gave a melting point of 158 °C. The IC50 in data set [1] (setting [2]) is 11 µM. Also, the IC50 in data set [1] (setting [3]) is 11 µM. For the same compound, the “Selectivity Index” value in data set [1] was found to be 0.90. In the data set with fibroblasts PCS-201-012, the IC50 turned out to be 9.92 µM.
On to `C/C=C/C1=C(O)C(=O)c2ccccc2C1=O` [Compound 4a, 2-Hydroxy-3-[(1E)-prop-1-en-1-yl]naphthalene-1,4-dione], for which, in data set [1] (setting [2]), the IC50 is > 100 µM.
Take `CC/C=C/C1=C(O)C(=O)c2ccccc2C1=O` [Compound 4b, 2-[(1E)-But-1-en-1-yl]-3-hydroxynaphthalene-1,4-dione]: the melting point was 107 °C. In addition, the IC50 in data set [1] (setting [2]) is > 100 µM.
Turning to `CCCC/C=C/C1=C(O)C(=O)c2ccccc2C1=O` [Compound 4c, 2-[(1E)-Hex-1-en-1-yl]-3-hydroxynaphthalene-1,4-dione], the melting point stood at 85 °C. The IC50 in data set [1] (setting [2]) is > 100 µM.
For the compound `Cc1cc2c(o1)C(=O)c1ccccc1C2=O` [Compound 4d, 2-Methylnaphtho[2,3-b]furan-4,9-dione], the IC50 was 17.6 µM in data set [1] (setting [2]), 17.6 µM in data set [1] (setting [3]) and 18.5 µM in the data set on fibroblasts PCS-201-012. The “Selectivity Index” value in data set [1] turned out to be 1.05. Also, the “Cytotoxic activity category” value in data set [1] was “highly active”.
For `CCc1cc2c(o1)C(=O)c1ccccc1C2=O` [Compound 4e, 2-Ethylnaphtho[2,3-b]furan-4,9-dione], the IC50 was 24.9 µM in data set [1] (setting [2]), 24.9 µM in data set [1] (setting [3]) and 20.1 µM in the data set on fibroblasts PCS-201-012. Moreover, in data set [1], the “Selectivity Index” value came out at 0.80.
For the compound `CCCCc1cc2c(o1)C(=O)c1ccccc1C2=O` [Compound 4f, 2-Butylnaphtho[2,3-b]furan-4,9-dione], the IC50 in data set [1] (setting [2]) is 23.7 to 88.1 µM; in data set [1] (setting [3]), 21.7 µM; in data set [1] (MTT, 48 h, 0–100 µM, value with 95% confidence interval, read-out: HT-29 IC50 μM (95% CI)) it was 21.7 µM; in the data set on fibroblasts PCS-201-012, 10 µM. Further, the “Selectivity Index” value in data set [1] was 0.46.
Take `Cc1cc2c(o1)-c1ccccc1C(=O)C2=O` [Compound 4g, 2-Methylnaphtho[1,2-b]furan-4,5-dione]: the melting point was determined as 124 °C. For the same compound, the IC50 in data set [1] (setting [2]) turned out to be 8.36 µM. Also, the IC50 in data set [1] (setting [3]) is 8.36 µM. In data set [1], the “Selectivity Index” value was 0.23 and the “Cytotoxic activity category” value is reported as “highly active”. Moreover, in the data set on fibroblasts PCS-201-012, the IC50 came to 1.93 µM.
For the compound `CCc1cc2c(o1)-c1ccccc1C(=O)C2=O` [Compound 4h, 2-Ethylnaphtho[1,2-b]furan-4,5-dione], the melting point worked out at 136 °C. Further, the IC50 in data set [1] (setting [2]) was 13.7 µM. The IC50 in data set [1] (setting [3]) is 13.7 µM. Moreover, in data set [1], the “Selectivity Index” value stood at 0.27 and the “Cytotoxic activity category” value is “highly active”. In the data set with fibroblasts PCS-201-012, the IC50 came out at 3.68 µM.
Consider `O=C1c2ccccc2C(=O)c2oc(-c3ccccc3)cc21` [Compound 4k, 2-Phenylnaphtho[2,3-b]furan-4,9-dione], for which the melting point amounted to 220 °C. In data set [1] (setting [2]), the IC50 is > 10 µM.
Consider `CC(=O)c1cc2c(o1)C(=O)c1ccccc1C2=O` [Compound 4m, 2-Acetylnaphtho[2,3-b]furan-4,9-dione], for which the IC50 in data set [1] (setting [2]) came out at 4.61 µM. Besides, in data set [1], the “Selectivity Index” value is listed as 0.76 and the “Cytotoxic activity category” value was “highly active”. The IC50 with fibroblasts PCS-201-012 was found to be 3.5 µM.
As to `COC(=O)C1C2=C(OC1c1ccccc1)C(=O)c1ccccc1C2=O` (stereo not shown) [Compound 4n, Methyl 4,9-Dioxo-2-phenyl-2,3,4,9-tetrahydronaphtho[2,3-b]furan-3-carboxylate], the melting point stood at 167 °C. Besides, the IC50 in data set [1] (setting [2]) is > 100 µM.
As for `O=C1C2=C(OC(c3ccccc3)C2)C(=O)c2ccccc21` (stereo not shown) [Compound 4q, 2-Phenyl-2,3-dihydronaphtho[2,3-b]furan-4,9-dione], the values for the IC50 (in data set [1] (setting [2]); in the data set with fibroblasts PCS-201-012) were 30.2 µM and 9.16 µM, respectively. The “Selectivity Index” value in data set [1] turned out to be 0.30.
For `O=C1C(=O)c2ccccc2C2=C1CC(c1ccccc1)O2` (stereo not shown) [Compound 4r, 2-Phenyl-2,3-dihydronaphtho[1,2-b]furan-4,5-dione], the results for the IC50 (in data set [1] (setting [2]); in the data set on fibroblasts PCS-201-012) were 14.8 µM and 8.2 µM, respectively. For the same compound, the “Selectivity Index” value in data set [1] was 0.56.
As to `COC(=O)c1nc2c(s1)C(=O)c1ccccc1C2=O` [Compound 5c, Methyl 4,9-Dioxo-4,9-dihydronaphtho[2,3-d][1,3]thiazole-2-carboxylate], the results for the IC50 (in data set [1] (setting [2]); in data set [1] (setting [3]); in the data set with fibroblasts PCS-201-012) were 13.9 µM, 13.9 µM and 7.26 µM, respectively. In addition, the “Selectivity Index” value in data set [1] was 0.52.
`CCN(CC)C(=O)c1cc2c(o1)C(=O)c1ccccc1C2=O` [Compound 6, N,N-diethyl-4,9-dioxo-4,9-dihydronaphtho[2,3-b]furan-2-carboxamide]: the IC50 in data set [1] (setting [2]) was 2.67 µM; in data set [1] (setting [3]), 2.67 µM; in the data set on fibroblasts PCS-201-012 it was 1.49 µM. For the same compound, the “Selectivity Index” value in data set [1] is 0.56. Also, the “Cytotoxic activity category” value in data set [1] is given as “highly active”.
For the compound `O=C(c1cccs1)c1cc2c(s1)C(=O)c1c(O)cccc1C2=O` [Compound 7, 8-hydroxy-2-(thiophen-2-ylcarbonyl)naphtho[2,3-b]thiophene-4,9-dione], the values for the IC50 (in data set [1] (setting [2]); in data set [1] (setting [3]); in the data set with fibroblasts PCS-201-012) were 1.73 µM, 1.73 µM and 4.56 µM, respectively.
For `CCN(CC)C(=O)c1cc2c(s1)C(=O)c1c(Cl)cccc1C2=O` [Compound 8, 8-chloro-N,N-diethyl-4,9-dioxo-4,9-dihydronaphtho[2,3-b]thiophene-2-carboxamide], the figures for the IC50 (in data set [1] (setting [2]); in data set [1] (setting [3]); in the data set on fibroblasts PCS-201-012) were 6.89 µM, 6.89 µM and 2.56 µM, respectively. In addition, in data set [1], the “Selectivity Index” value is on record as 0.37.
On to `CCc1noc(-c2cc3c(s2)C(=O)c2ccccc2C3=O)n1` [Compound 9, 2-(3-ethyl-1,2,4-oxadiazol-5-yl)naphtho[2,3-b]thiophene-4,9-dione], for which the figures for the IC50 (in data set [1] (setting [2]); in data set [1] (setting [3]); in the data set on fibroblasts PCS-201-012) were 3.07 µM, 3.07 µM and 1.03 µM, respectively. In data set [1], the “Selectivity Index” value is 0.34.
With `COc1cccc2c1C(=O)c1c(O)c3c(c(O)c1C2=O)C[C@@](O)(C(=O)CO)C[C@@H]3O[C@H]1C[C@H](N)[C@H](O)[C@H](C)O1` [Doxorubicin, reference compound], the IC50 in data set [1] (setting [2]) is 1.07 µM.

In general, melting point refers to the temperature of the solid-liquid transition.
